Results reported in patent US11136300B2, “Crystalline forms of 3-substituted 1,2,4-oxadiazole” (Aurigene Discovery Technologies Limited, priority 2017, dated 2021).
Converted amounts (≈) assume the structure as drawn.

Legend:
Type in all cases: physicochemical
[1] = Storage of Form 1 at ambient conditions
Method: Formula (I) Form 1 exists at ambient conditions upon short term storage (i.e., less than 8 d). A mixture of formula (I) Forms 1 and 2 (16 mg) was weighed into a glass vial, and tetrahydrofuran (THF, 0.5 mL) was added. The resulting slurry was stirred at room temperature for about 4 d. The wet solids were analyzed by XRPD in transmission mode and confirmed to be crystalline formula (I) Form 1, as shown by XRPD analysis (FIG. 1).

[2] = Solid stability of crystalline Form 2 on storage; conditions: 7-8 days
Method: Samples of formula (I) crystalline Form 2 were stored as solids at 25° C./60% Relative Humidity (RH), 30° C./˜56%, and 40° C./75% RH for 7-8 days. The samples were prepared in duplicate with an offset of 2 weeks. Each replicate was stored in a different container.

[3] = Equilibrium solubility of formula (I) Form 2 in water; conditions: for Final Form: solids checked by XRPD after 6 hrs; for solubility at 6 h: thermodynamic from solid, equilibrated 6 hrs, supernatant by HPLC
Method: Equilibrium solubility of formula (I) Form 2 was measured in the water at 20° C. and 30° C. All samples were equilibrated at temperature for 6 hrs, and the solubility of supernatant was measured by HPLC, while the solids were checked by XRPD. (See Table 9.)

SMILES | time for which the form exists on short term storage [1] | solid form and particle morphology after storage ([2]; 25° C./60% RH) | solid form and particle morphology after storage ([2]; 30° C./~56% RH) | solid form and particle morphology after storage ([2]; 40° C./75% RH) | form change during the solubility testing ([3]; 20° C. and 30° C., XRPD (FIG. 6)) | Final Form ([3]; 20° C.) | Final Form ([3]; 30° C.) | solubility at 6 h ([3]; 20° C.) | solubility at 6 h ([3]; 30° C.)
CC(O)[C@H](NC(=O)N[C@@H](CC(N)=O)c1nc([C@@H](N)CO)no1)C(=O)O (stereo partly drawn) [Form 1] | less than 8 d | – | – | – | – | – | – | – | –
CC(O)[C@H](NC(=O)N[C@@H](CC(N)=O)c1nc([C@@H](N)CO)no1)C(=O)O (stereo partly drawn) [Form 2] | – | remained unchanged | remained unchanged | remained unchanged | No form change was observed | Form 2 | Form 2 | 148 mg/mL (≈ 410 mM) | 166 mg/mL (≈ 459 mM)
